Reference: patent US20220306585A1, “PYRAZOLE DERIVATIVES FOR CONTROLLING ARTHROPODS” (Bayer Animal Health GmbH, priority 2019, published 2022)
In brackets after ≈: the same amount, converted by molar mass.

How the values were obtained:
[1] = Measurement of stability of prodrugs in buffer at pH 7.4; assay type: physicochemical; settings: PBS buffer pH 7.4, 37° C., HPLC peak area, read-out: % Recovery after 24 h (stability at pH 7.4)
Description: Preparation of the PBS buffer solution pH 7.4: 90 g sodium chloride, 13.61 g potassium dihydrogen phosphate, 83.35 g 1M aqueous sodium hydroxide were dissolved in water. More water was added up to a total volume of 1 L. This solution was diluted 1:10 with water. Eventually, pH was adjusted to pH 7.4 by the addition of phosphoric acid.
Measurement of Stability of Prodrugs in Buffer at pH 7.4
0.15 mg of the test compound were dissolved in 0.1 mL dimethylsulfoxide and 0.4 mL acetonitrile. For complete dissolution, the HPLC vial with the sample solution was shaken and treated with ultrasound. Then, 1.0 mL of PBS buffer solution pH 7.4 was added and the sample was vortexed. The sample solution was analysed by HPLC (method 8) to determine the amount of the test compound at a particular time over a period of 24 h at 37° C. The peak areas, given as percentage of total area, are used for quantification. In addition, the reaction mixture was analysed by method 9 (HPLC-MS) at the final timepoint.

[2] = Degradation of prodrugs and release of parent drug in rat plasma; assay type: in vitro ADME; settings: male, Hannover-Janvier RjHan, rat plasma (Li-heparin), 37° C., percent area of prodrug at t0
Description: Measurement of Release of Parent Drug in Rat Plasma 1 mg of the test compound was dissolved in 0.5 mL acetonitrile/dimethylsulfoxide 9:1. For complete dissolution the HPLC vial was shaken and treated with ultrasound. 20 μL of this solution were added to 1 mL of rat plasma (Li-heparin plasma, Hannover-Janvier rat, RjHan male) with vortexing at a temperature of 37° C. Aliquots (100 μL each) were taken at 0.17, 0.5, 1, 1.5, 2 and 4 hours. Each aliquot was transferred to a vial containing 300 μL of acetonitrile/citric acid buffer pH 3 8:2. These solutions were centrifuged at 5000 rpm for 10 minutes. The supernatant was analysed by HPLC (Method 8) to determine the amount of the test compound. In addition, the reaction mixture was analysed by method 9 (HPLC-MS) at the final timepoint. Both decrease of the prodrug concentration and increase of parent drug concentration were monitored. All data is given as percent area of the prodrug at to.

[3] = tested on: Ctenocephalides felis adult; assay: Antiparasitic activity after administration to rats: fleas; assay type: in vivo; settings: for In-vivo Efficacy SD2: study day 2; for In-vivo Efficacy SD9: study day 9; for In-vivo Efficacy SD16: study day 16; for In-vivo Efficacy SD23: study day 23; for In-vivo Efficacy SD30: study day 30; for In-vivo Efficacy SD37: study day 37
Description: (§1) Measurement of the Antiparasitic Activity after Administration of a Prodrug to Rats Compounds were dissolved in the appropriate volume of glycerol formal (p.a.) just before application to the animals (dose volume was adjusted to 0.03 mL/kg bodyweight). 5 rats per group were either injected intraperitoneally or subcutaneously. Rats were infested with 30 Dermacentor variabilis nymphs on study days −2, 7, 14, 21, 28, 35 and 30 adult Ctenocephalides fleas on study days −1, 8, 15, 22, 29, 36. Parasite counts were performed on study days 2, 9, 16, 23, 30, 37. Percent efficacy was calculated as arithmetic mean parasite numbers as life attached tick numbers and live flea numbers of the respective study group in comparison to parasite counts on a placebo-treated control group. Infestation of groups with less than 75% efficacy on two consecutive counting occasions will terminated for the respective parasite.

[4] = tested on: Dermacentor variabilis nymph; assay: Antiparasitic activity after administration to rats: ticks; assay type: in vivo; settings: for In-vivo Efficacy SD2: study day 2; for In-vivo Efficacy SD9: study day 9; for In-vivo Efficacy SD16: study day 16; for In-vivo Efficacy SD23: study day 23; for In-vivo Efficacy SD30: study day 30; for In-vivo Efficacy SD37: study day 37
Description: as §1

[5] = Measurement of solubility in buffer at pH 6.5; assay type: physicochemical; settings: aqueous buffer, kinetic from dmso stock; PBS buffer pH 6.5, shaken 24 h at rt, LC-MSMS; read-out: Solubility of example compounds at pH 6.5
Description: Measurement of Solubility in Buffer at pH 6.5 2-4 mg of the test compound are dissolved in DMSO to reach a concentration of 50 g/L (solution A). To 10 μL of this solution 960 μL PBS buffer pH 6.5 are added (final concentration: […]); the mixture is shaken for 24 h at rt in a 96 well plate. An aliquot is centrifuged at 42000 rpm für 30 min. The supernatant is diluted with acetonitrile/water (8:2) 1:10 and 1:1000 resp. This diluted samples are analyzed by LC-MSMS. Calibration: 10 μL of solution A are diluted with 823 μL DMSO (final concentration: 600 μg/mL), which is further diluted with acetonitrile/water 8:2 by a factor of 100 (provides solution B). The calibration curve is obtained from solution B by further diluting with acetonitrile/water 8:2 with target concentrations of 1.2-12-60-600 ng/mL and injecting these four solutions for MS measurement. PBS-Puffer: 6.18 g sodium chloride and 3.96 g sodium dihydrogen phosphate are dissolved in 1 L aqua dist., the pH is adjusted to 6.5 with IN sodium hydroxide.

[6] = 12.84 mg/kg sc, Ctenocephalides felis adult
[7] = 12.84 mg/kg sc, Dermacentor variabilis nymph
[8] = 12.74 mg/kg sc, Ctenocephalides felis adult
[9] = 12.74 mg/kg sc, Dermacentor variabilis nymph
[10] = 12.96 mg/kg sc, Ctenocephalides felis adult
[11] = 12.96 mg/kg sc, Dermacentor variabilis nymph
[12] = sc, versus parent drug also injected subcutaneously

What does the source list for `N#CC1(N(COC(=O)[C@H]2CC[C@H](C(=O)O)CC2)C(=O)c2cc(-c3cnn(-c4c(Cl)cc(C(F)(C(F)(F)F)C(F)(F)F)cc4OC(F)(F)F)c3)ccc2Cl)CC1` [Example 11, (trans)-4-({[(2-Chloro-5-{1-[2-chloro-4-(1,1,1,2,3,3,3-heptafluoropropan-2-yl)-6-(trifluoromethoxy)phenyl]-1H-pyrazol-4-yl}benzoyl)(1-cyanocyclopropyl)amino]methoxy}carbonyl)cyclohexane-1-carboxylic acid]?
recovery at 24 h, 0.1 mg/mL [1]: 100%; recovery at 0.17 h, 39 µg/mL [2]: 98%; recovery at 0.5 h, 39 µg/mL [2]: 96%; recovery at 1 h, 39 µg/mL [2]: 92%; recovery at 1.5 h, 39 µg/mL [2]: 89%; recovery at 2 h, 39 µg/mL [2]: 86%; recovery at 4 h, 39 µg/mL [2]: 74%; In-vivo Efficacy SD2 [3, 6]: 100%; In-vivo Efficacy SD9 [3, 6]: 100%; In-vivo Efficacy SD16 [3, 6]: 100%; In-vivo Efficacy SD23 [3, 6]: 100%; In-vivo Efficacy SD30 [3, 6]: 97%; In-vivo Efficacy SD37 [3, 6]: 76%; In-vivo Efficacy SD2 [4, 7]: 100%; In-vivo Efficacy SD9 [4, 7]: 100%; In-vivo Efficacy SD16 [4, 7]: 100%; In-vivo Efficacy SD23 [4, 7]: 100%; In-vivo Efficacy SD30 [4, 7]: 96%; In-vivo Efficacy SD37 [4, 7]: 71%; solubility at 24 h [5]: 5 µg/mL (≈ 6 µM)

What does the source list for `N#CC1(N(COC(=O)c2ccc(C(=O)O)cc2)C(=O)c2cc(-c3cnn(-c4c(Cl)cc(C(F)(C(F)(F)F)C(F)(F)F)cc4OC(F)(F)F)c3)ccc2Cl)CC1` [Example 3, 4-({[(2-Chloro-5-{1-[2-chloro-4-(1,1,1,2,3,3,3-heptafluoropropan-2-yl)-6-(trifluoromethoxy)phenyl]-1H-pyrazol-4-yl}benzoyl)(1-cyanocyclopropyl)amino]methoxy}carbonyl)benzoic acid]?
recovery at 24 h, 0.1 mg/mL [1]: 99%; recovery at 0.17 h, 39 µg/mL [2]: 100%; recovery at 0.5 h, 39 µg/mL [2]: 100%; recovery at 1 h, 39 µg/mL [2]: 100%; recovery at 1.5 h, 39 µg/mL [2]: 100%; recovery at 2 h, 39 µg/mL [2]: 100%; recovery at 4 h, 39 µg/mL [2]: 100%; In-vivo Efficacy SD2 [3, 8]: 100%; In-vivo Efficacy SD9 [3, 8]: 100%; In-vivo Efficacy SD16 [3, 8]: 100%; In-vivo Efficacy SD23 [3, 8]: 96%; In-vivo Efficacy SD30 [3, 8]: 80%; In-vivo Efficacy SD37 [3, 8]: 55%; In-vivo Efficacy SD2 [4, 9]: 99%; In-vivo Efficacy SD9 [4, 9]: 98%; In-vivo Efficacy SD16 [4, 9]: 93%; In-vivo Efficacy SD23 [4, 9]: 96%; In-vivo Efficacy SD30 [4, 9]: 85%; In-vivo Efficacy SD37 [4, 9]: 48%; solubility at 24 h [5]: 3 µg/mL (≈ 3.63 µM)

With `N#CC1(N(COC(=O)Cc2ccc(C(=O)O)cc2)C(=O)c2cc(-c3cnn(-c4c(Cl)cc(C(F)(C(F)(F)F)C(F)(F)F)cc4OC(F)(F)F)c3)ccc2Cl)CC1` [Example 15, 4-(2-{[(2-Chloro-5-{1-[2-chloro-4-(1,1,1,2,3,3,3-heptafluoropropan-2-yl)-6-(trifluoromethoxy)phenyl]-1H-pyrazol-4-yl}benzoyl)(1-cyanocyclopropyl)amino]methoxy}-2-oxoethyl)benzoic acid] as the compound, how does the recovery at 24 h, 0.1 mg/mL [1] read?
The recovery at 24 h, 0.1 mg/mL was 100%.

What about the recovery at 0.17 h, 39 µg/mL [2] of the same compound?
The recovery at 0.17 h, 39 µg/mL was 94%.

And the recovery at 0.5 h, 39 µg/mL [2]?
Its recovery at 0.5 h, 39 µg/mL is 81%.

What about the recovery at 1 h, 39 µg/mL [2] of the same compound?
The recovery at 1 h, 39 µg/mL was 62%.

And the recovery at 1.5 h, 39 µg/mL [2]?
The recovery at 1.5 h, 39 µg/mL was 47%.

What about the recovery at 2 h, 39 µg/mL [2] of the same compound?
Its recovery at 2 h, 39 µg/mL is 36%.

And the recovery at 4 h, 39 µg/mL [2]?
The recovery at 4 h, 39 µg/mL was 10%.

And the “In-vivo Efficacy SD2” value [3, 10]?
Its value is 100%.

And the “In-vivo Efficacy SD9” value [3, 10]?
Its value is 100%.

And the “In-vivo Efficacy SD16” value [3, 10]?
The value was 100%.

And the “In-vivo Efficacy SD23” value [3, 10]?
The value was 99%.

What about the “In-vivo Efficacy SD30” value [3, 10] of the same compound?
The value was 96%.

And the “In-vivo Efficacy SD37” value [3, 10]?
The value was 81%.

And the “In-vivo Efficacy SD42” value ([3]; 12.96 mg/kg sc, Ctenocephalides felis adult, study day 42)?
The value was 75%.

And the “In-vivo Efficacy SD2” value [4, 11]?
Its value is 100%.

What about the “In-vivo Efficacy SD9” value [4, 11] of the same compound?
The value was 100%.

What about the “In-vivo Efficacy SD16” value [4, 11] of the same compound?
Its value is 100%.

And the “In-vivo Efficacy SD23” value [4, 11]?
Its value is 100%.

And the “In-vivo Efficacy SD30” value [4, 11]?
Its value is 100%.

What about the “In-vivo Efficacy SD37” value [4, 11] of the same compound?
The value was 100%.

And the “In-vivo Efficacy SD42” value ([4]; 12.96 mg/kg sc, Dermacentor variabilis nymph, study day 42)?
The value was 96%.

What about the solubility at 24 h [5] of the same compound?
The solubility at 24 h was 5 µg/mL (≈ 5.94 µM).

With `Cn1nc(C(F)(F)C(F)(F)F)c(C(F)(F)F)c1-n1cc(-c2ccc(Cl)c(C(=O)N(COC(=O)C3CC3C(=O)O)C3(C#N)CC3)c2)cn1` (stereo not drawn) [Example 1, 2-({[{2-Chloro-5-[2′-methyl-5′-(pentafluoroethyl)-4′-(trifluoromethyl)-2′H-[1,3′-bipyrazol]-4-yl]benzoyl}(1-cyanocyclopropyl)amino]methoxy}carbonyl)cyclopropane-1-carboxylic acid] as the compound, how does the recovery at 24 h, 0.1 mg/mL [1] read?
The recovery at 24 h, 0.1 mg/mL was 100%.

And the recovery at 0.17 h, 39 µg/mL [2]?
The recovery at 0.17 h, 39 µg/mL was 93%.

What about the recovery at 0.5 h, 39 µg/mL [2] of the same compound?
The recovery at 0.5 h, 39 µg/mL was 88%.

And the recovery at 1 h, 39 µg/mL [2]?
The recovery at 1 h, 39 µg/mL was 80%.

And the recovery at 1.5 h, 39 µg/mL [2]?
Its recovery at 1.5 h, 39 µg/mL is 74%.

What about the recovery at 2 h, 39 µg/mL [2] of the same compound?
The recovery at 2 h, 39 µg/mL was 66%.

And the recovery at 4 h, 39 µg/mL [2]?
The recovery at 4 h, 39 µg/mL was 49%.

And the “flea efficacy on rats compared with parent drug” value [3, 12]?
Its value is “superior”.

What about the “tick efficacy on rats compared with parent drug” value [4, 12] of the same compound?
Its value is “superior”.

And the solubility at 24 h [5]?
Its solubility at 24 h is 331 µg/mL (≈ 476 µM).
